PubChem BioAssay (NCI)
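Compound exposure: 48 hours, 5 concentrations, 96-well plates. TGI: concentration producing complete growth inhibition.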

Columns and labels:
Assay in all cases: NCI-60 cell line screen, 48 h
NCI/ADR-RES ovarian = test system: NCI/ADR-RES ovarian
MDA-MB-435 = test system: MDA-MB-435
OVCAR-3 ovarian = test system: OVCAR-3 ovarian
SN12C renal = test system: SN12C renal
SK-MEL-28 melanoma = test system: SK-MEL-28 melanoma
ACHN renal = test system: ACHN renal
LOX IMVI melanoma = test system: LOX IMVI melanoma
A498 renal = test system: A498 renal
SW-620 colon = test system: SW-620 colon
IGROV1 ovarian = test system: IGROV1 ovarian
MOLT-4 leukemia = test system: MOLT-4 leukemia
DU-145 prostate = test system: DU-145 prostate
UO-31 renal = test system: UO-31 renal
OVCAR-8 ovarian = test system: OVCAR-8 ovarian
SR leukemia = test system: SR leukemia
KM12 colon = test system: KM12 colon
RXF 393 renal = test system: RXF 393 renal
UACC-257 melanoma = test system: UACC-257 melanoma
A549 NSCLC = test system: A549 NSCLC
MCF7 breast = test system: MCF7 breast
SF-539 CNS = test system: SF-539 CNS
K-562 leukemia = test system: K-562 leukemia
M14 melanoma = test system: M14 melanoma
HOP-62 NSCLC = test system: HOP-62 NSCLC
BT-549 breast = test system: BT-549 breast
SNB-19 CNS = test system: SNB-19 CNS
NCI-H226 lung = test system: NCI-H226 lung
SNB-75 CNS = test system: SNB-75 CNS
HL-60(TB) leukemia = test system: HL-60(TB) leukemia
CCRF-CEM leukemia = test system: CCRF-CEM leukemia
PC-3 prostate = test system: PC-3 prostate
CAKI-1 renal = test system: CAKI-1 renal
SK-MEL-2 melanoma = test system: SK-MEL-2 melanoma
COLO 205 colon = test system: COLO 205 colon
MDA-N = test system: MDA-N
NCI-H460 lung = test system: NCI-H460 lung
OVCAR-4 ovarian = test system: OVCAR-4 ovarian
HCT-116 colon = test system: HCT-116 colon
UACC-62 melanoma = test system: UACC-62 melanoma
SK-MEL-5 melanoma = test system: SK-MEL-5 melanoma
SF-295 CNS = test system: SF-295 CNS
HS 578T breast = test system: HS 578T breast
SK-OV-3 ovarian = test system: SK-OV-3 ovarian
MDA-MB-231 breast = test system: MDA-MB-231 breast
OVCAR-5 ovarian = test system: OVCAR-5 ovarian
786-0 renal = test system: 786-0 renal
HT29 colon = test system: HT29 colon
SF-268 CNS = test system: SF-268 CNS
HCC-2998 colon = test system: HCC-2998 colon
MALME-3M melanoma = test system: MALME-3M melanoma
HCT-15 colon = test system: HCT-15 colon
EKVX NSCLC = test system: EKVX NSCLC
T-47D breast = test system: T-47D breast
NCI-H23 lung = test system: NCI-H23 lung
U251 CNS = test system: U251 CNS
NCI-H522 lung = test system: NCI-H522 lung
TK-10 renal = test system: TK-10 renal
RPMI-8226 leukemia = test system: RPMI-8226 leukemia
HOP-92 NSCLC = test system: HOP-92 NSCLC

Compound `O=S1(=O)c2ccccc2N2CCCc3cc(Cl)cc1c32` has a TGI (NCI/ADR-RES ovarian) greater than 100 µM, a TGI (MDA-MB-435) greater than 100 µM and a TGI (OVCAR-3 ovarian) greater than 100 µM. For the same compound, the TGI (SN12C renal) was greater than 100 µM, the TGI (SK-MEL-28 melanoma) was greater than 100 µM and the TGI (ACHN renal) was greater than 100 µM. It also gave a TGI (LOX IMVI melanoma) greater than 100 µM, a TGI (A498 renal) greater than 100 µM and a TGI (SW-620 colon) greater than 100 µM. It also gave a TGI (IGROV1 ovarian) greater than 100 µM, a TGI (MOLT-4 leukemia) greater than 100 µM and a TGI (DU-145 prostate) greater than 100 µM. It also gave a TGI (UO-31 renal) greater than 100 µM, a TGI (OVCAR-8 ovarian) greater than 100 µM and a TGI (SR leukemia) greater than 100 µM. For the same compound, the TGI (KM12 colon) was greater than 100 µM, the TGI (RXF 393 renal) was 51.3 µM and the TGI (UACC-257 melanoma) was greater than 100 µM. It also gave a TGI (A549 NSCLC) greater than 100 µM, a TGI (MCF7 breast) greater than 100 µM and a TGI (SF-539 CNS) greater than 100 µM. The TGI (K-562 leukemia) was greater than 100 µM, the TGI (M14 melanoma) was greater than 100 µM and the TGI (HOP-62 NSCLC) was greater than 100 µM. The TGI (BT-549 breast) was greater than 100 µM, the TGI (SNB-19 CNS) was greater than 100 µM and the TGI (NCI-H226 lung) was greater than 100 µM. For the same compound, the TGI (SNB-75 CNS) was 29.9 µM, the TGI (HL-60(TB) leukemia) was greater than 100 µM and the TGI (CCRF-CEM leukemia) was greater than 100 µM. It also gave a TGI (PC-3 prostate) greater than 100 µM, a TGI (CAKI-1 renal) greater than 100 µM and a TGI (SK-MEL-2 melanoma) greater than 100 µM. The TGI (COLO 205 colon) was greater than 100 µM, the TGI (MDA-N) was greater than 100 µM and the TGI (NCI-H460 lung) was greater than 100 µM. For the same compound, the TGI (OVCAR-4 ovarian) was greater than 100 µM, the TGI (HCT-116 colon) was greater than 100 µM and the TGI (UACC-62 melanoma) was greater than 100 µM. It also gave a TGI (SK-MEL-5 melanoma) greater than 100 µM, a TGI (SF-295 CNS) of 95 µM and a TGI (HS 578T breast) of 84.7 µM. For the same compound, the TGI (SK-OV-3 ovarian) was greater than 100 µM, the TGI (MDA-MB-231 breast) was greater than 100 µM and the TGI (OVCAR-5 ovarian) was greater than 100 µM. For the same compound, the TGI (786-0 renal) was greater than 100 µM, the TGI (HT29 colon) was greater than 100 µM and the TGI (SF-268 CNS) was greater than 100 µM. For the same compound, the TGI (HCC-2998 colon) was greater than 100 µM, the TGI (MALME-3M melanoma) was greater than 100 µM and the TGI (HCT-15 colon) was greater than 100 µM. It also gave a TGI (EKVX NSCLC) greater than 100 µM.

`Brc1ccc2c(c1)C1=C(CO2)Cc2ccccc2O1` showed a TGI (NCI/ADR-RES ovarian) of 58.3 µM, a TGI (MDA-MB-435) of 45.1 µM and a TGI (OVCAR-3 ovarian) of 31.8 µM. It also gave a TGI (SN12C renal) of 33 µM, a TGI (ACHN renal) of 33.3 µM and a TGI (LOX IMVI melanoma) of 31.1 µM. For the same compound, the TGI (T-47D breast) was 33.2 µM, the TGI (A498 renal) was 45.2 µM and the TGI (SW-620 colon) was 66.4 µM. For the same compound, the TGI (IGROV1 ovarian) was 32.7 µM, the TGI (NCI-H23 lung) was 32.5 µM and the TGI (MOLT-4 leukemia) was 66.1 µM. The TGI (DU-145 prostate) was 38.6 µM, the TGI (UO-31 renal) was 30.6 µM and the TGI (U251 CNS) was 36.3 µM. For the same compound, the TGI (OVCAR-8 ovarian) was 47.6 µM, the TGI (SR leukemia) was greater than 100 µM and the TGI (KM12 colon) was 37.2 µM. It also gave a TGI (UACC-257 melanoma) of 32.6 µM, a TGI (A549 NSCLC) of 48 µM and a TGI (NCI-H522 lung) of 39.8 µM. The TGI (SF-539 CNS) was 36.3 µM, the TGI (K-562 leukemia) was greater than 100 µM and the TGI (M14 melanoma) was 35 µM. It also gave a TGI (HOP-62 NSCLC) of 30.3 µM, a TGI (BT-549 breast) of 33 µM and a TGI (TK-10 renal) of 37.2 µM. The TGI (NCI-H226 lung) was 40.1 µM, the TGI (SNB-75 CNS) was 43 µM and the TGI (RPMI-8226 leukemia) was 61.8 µM. For the same compound, the TGI (CCRF-CEM leukemia) was greater than 100 µM, the TGI (PC-3 prostate) was 32.9 µM and the TGI (CAKI-1 renal) was 32.3 µM. It also gave a TGI (SK-MEL-2 melanoma) of 34.3 µM, a TGI (COLO 205 colon) of 31.5 µM and a TGI (MDA-N) of 27 µM. It also gave a TGI (OVCAR-4 ovarian) of 33.6 µM, a TGI (HCT-116 colon) of 29.9 µM and a TGI (UACC-62 melanoma) of 32.2 µM. For the same compound, the TGI (SK-MEL-5 melanoma) was 28.2 µM, the TGI (SF-295 CNS) was 35.4 µM and the TGI (HOP-92 NSCLC) was 31.5 µM. It also gave a TGI (SK-OV-3 ovarian) of 46.7 µM, a TGI (MDA-MB-231 breast) of 30.3 µM and a TGI (OVCAR-5 ovarian) of 34.8 µM. It also gave a TGI (786-0 renal) of 43.7 µM, a TGI (HT29 colon) of 62.8 µM and a TGI (SF-268 CNS) of 41 µM. It also gave a TGI (HCC-2998 colon) of 32.3 µM, a TGI (MALME-3M melanoma) of 38.2 µM and a TGI (HCT-15 colon) of 38.4 µM. It also gave a TGI (EKVX NSCLC) of 54.9 µM.
